# Measured values from publication PMC12040169 (PLOS Biology, 2025).
# Assay: in vitro
# Conditions: human, hela cells
row,Compound,"viability at 28.5 h, 10 µM [%]"
1,COCCn1cc(C(=O)N2CCCC(CN(C)C)C2)c2ccccc21 (centres unmarked) [CBK281431],91.5

# Same assay, conditions: human, hela cells, % viability
row,Compound,"viability at 28.5 h, 10 µM [%]"
1,CC(O)c1ccc(-c2ccc(CNCCCN3CCOCC3)o2)cc1 (centres unmarked) [CBK278178C],95.4
2,COc1ccc(CNCCN2CCOCC2)c(OC)c1 [CBK278180C],90.1
3,CCOc1c(CNCCN2CCOCC2)cccc1OC [CBK278182C],103
4,COc1cccc(CNCCN2CCOCC2)c1O [CBK278183C],90.2
5,O=C1C2C3C=CC(C3)C2C(=O)N1CCN1CCNCC1 (centres unmarked) [CBK278185C],92.3
6,CN(C)CCNc1cc(-c2ccc3ccccc3c2)nc2ccccc12 [CBK278186B],67.9
7,Cn1cccc1CNCCN1CCOCC1 [CBK278187C],89.2
8,Clc1ccc(Cl)c(-c2ccc(CNCCCN3CCOCC3)o2)c1 [CBK278190C],89.3
9,CN1CCN(CC(O)COc2ccccc2)CC1 (centres unmarked) [CBK278191G],83.8
10,Fc1ccc(CNCCN2CCOCC2)cc1 [CBK278192C],105
11,CCOC(=O)Nc1ccc2c(c1)N(C(=O)CCN(C)C)c1ccccc1CC2 [CBK278193C],89.9
12,C(=C\c1ccccc1)/CNCCCN1CCOCC1 [CBK278195C],105
13,O=S(=O)(O)c1ccc(N/N=C/c2cccc(/C=N/Nc3ccc(S(=O)(=O)O)cc3)c2)cc1 [CBK278204N],89
14,Cc1cccc(C)c1OCCOCC(O)CN1CCN(C)CC1 (centres unmarked) [CBK278206C],90.4
15,COc1ccc(Br)cc1CNCCCN1CCOCC1 [CBK278208C],102
16,C1CN=C(SCCCSC2=NCCCN2)NC1 [CBK278210B],110
17,CC1CCC(C(C)C)C(OCC(O)CN2CCN(C)CC2)C1 (centres unmarked) [CBK278213C],105
18,C=CCOc1ccc(CNCCN2CCOCC2)cc1 [CBK278215C],94.3
19,O=C(CCN1CCN(CCO)CC1)N1c2ccccc2Sc2ccc(C(F)(F)F)cc21 [CBK278218C],96.4
20,COC(=O)Nc1ccc2c(c1)N(C(=O)CCN1CCN3CCCC3C1)c1ccccc1CC2 (centres unmarked) [CBK278220C],93.1
21,Fc1ccccc1COc1ccccc1CNCCN1CCOCC1 [CBK278222C],96.4
22,Cc1ccc(COC(CN2CCCCCC2)CN2CCCCCC2)cc1 [CBK278236C],100
23,CN1CCN(CCCN2C(=O)CSC2c2cccc([N+](=O)[O-])c2)CC1 (centres unmarked) [CBK278237C],99.9
24,CCOC(=O)c1c(C)nc2n(CCN3CCCCC3)c3ccccc3n12 [CBK278238C],91.3

row,Compound,"viability at 28.5 h, 10 µM [%]"
1,CCN(CC)CCn1c(=N)n(CC(=O)c2cccs2)c2ccccc21 [CBK278240B],85.1
2,O=C(NCCN1CCNCC1)c1ccccn1 [CBK278241C],108
3,CC(=O)c1c(-c2cccc3ccccc23)nc2n(CCN3CCCCC3)c3ccccc3n12 [CBK278243C],103
4,N=c1n(CCN2CCCCC2)c2ccccc2n1CC(=O)c1cccs1 [CBK278244B],85
5,OC(COCc1ccc2c(c1)OCO2)CN1CCN(Cc2ccccc2)CC1 (centres unmarked) [CBK278249C],93.5
6,CC(C)(C)c1cn2c3ccccc3nc2n1CCN1CCOCC1 [CBK278252C],103
7,CN1CCN(CC(O)COCc2ccc3c(c2)OCO3)CC1 (centres unmarked) [CBK278260C],81.4
8,OCCN1CCN(CC(O)COCc2ccccc2)CC1 (centres unmarked) [CBK278262C],90.6
9,CC(C)(C)C1CCC(OCC(O)CN2CCN(CCO)CC2)CC1 (centres unmarked) [CBK278263C],89.8
10,CC(=C\C(=O)O)/C(=C/c1ccncc1)C(=O)O [CBK278265N],116
11,OCCNCCNCc1ccc(-c2ccccc2)cc1 [CBK278269C],115
12,CN(C)CCCn1c(NCc2ccc3c(c2)OCO3)nc2ccccc21 [CBK278273C],94.4
13,Cc1nnc(N/N=C/c2cn(Cc3c(F)cccc3Cl)c3ccccc23)n1N [CBK278277C],86.8
14,CCOC(=O)C1CCCN1Cc1ccccc1 (centres unmarked) [CBK278278G],95
15,CCc1nnc(N/N=C/c2cc(Cl)c(OCc3ccccc3F)c(OC)c2)n1N [CBK278282C],85.4
16,CN(C)CCCNC(=O)c1ccc(/C=N/O)[n+](C)c1 [CBK278284I],88.8
17,NCCc1nc2ccccc2[nH]1 [CBK278287C],91.8
18,Cc1ccccc1CNCCNCCO [CBK278293C],98
19,c1ccc2c(c1)N1CCCN=C1N2CCN1CCOCC1 [CBK278300C],108
20,N=C(N)SCCCCSC(=N)N [CBK278304B],102
21,O=C(O)C(O)C(O)C(O)CO (centres unmarked) [CBK278306G],89.3
22,O=S(=O)(O)CCCSCCCS(=O)(=O)O [CBK278307N],95.4
23,COc1ccccc1CNCCCN1CCOCC1 [CBK278310C],96.2
24,CC1=NN(c2ccc(S(=O)(=O)O)cc2)C(=O)/C1=C/C=C/c1c(C)nn(-c2ccc(S(=O)(=O)O)cc2)c1O [CBK278317K],94.6

row,Compound,"viability at 28.5 h, 10 µM [%]"
1,Cc1ccccc1OCC(O)CN1CCN(CCN2C(=O)c3cccc4cccc(c34)C2=O)CC1 (centres unmarked) [CBK278321C],68.9
2,CC(C)(C)OC(=O)NCC1CCC(C(=O)O)CC1 (centres unmarked) [CBK278598],94.5
3,CCOc1ncccc1C(=O)NCc1ccc(NC(N)=O)cc1 [CBK279382],111
4,Cc1oc2[nH]c(CN(C)CCOc3ccc(Cl)cc3)nc(=N)c2c1C(=O)O [CBK279463],102
5,O=C(O)CCCC(=O)Nc1ccccc1-c1nc2ccccc2[nH]c1=O [CBK280451],85.9
6,Cc1nccn1CCCC(=O)NCC1(c2ccccc2F)CCCC1 [CBK281370],109
7,Cc1ccc(C(C)(C)C(=O)N2CC(C(=O)N3CCN(C)CC3)C2)cc1 [CBK281371],99.4
8,CC(=O)N1CC(C(=O)Nc2nc3c(C)cc(C)cc3s2)C1 [CBK281372],95.9
9,CC(NC(=O)c1ccccc1Cn1cccn1)c1ccccn1 (centres unmarked) [CBK281374],86.3
10,CNC(=O)C1(C)CCCN1C(=O)c1cc2cc(C)ccc2n1C (centres unmarked) [CBK281375],86.1
11,CCn1cncc1C(=O)Nc1ccc(-n2ccnc2C(C)C)cc1 [CBK281379],95.8
12,CC(C)c1nccn1-c1ccc(NC(=O)Cn2ccnc2)cc1 [CBK281381],88.9
13,O=C(CCCn1ccnc1)Nc1ccc(N2CCCCC2)c(F)c1 [CBK281385],81.1
14,O=C(Nc1ccc(N2CCCCC2)c(F)c1)C1CC(=O)N(C2CC2)C1 (centres unmarked) [CBK281387],108
15,Cc1cc(C(=O)NCCn2nc(C)c(C)c2C)c2cccc(C)c2n1 [CBK281388],110
16,Cc1ccc(C(=O)Nc2ccc(N3CCCCC3)c(F)c2)c(=O)n1C [CBK281390],89.5
17,Cc1cc(CNC(=O)c2cc3ccc(Cl)cc3[nH]2)[nH]n1 [CBK281391],87.8
18,Cc1nn(C)c(C)c1C(C)NS(=O)(=O)Cc1cccc(F)c1 (centres unmarked) [CBK281396],107
19,Cc1ccc2nc(C(=O)NCCSc3nccn3C)cn2c1 [CBK281397],93.4
20,Cc1ccc(S(=O)(=O)NCCc2nc3ccccc3n2C)s1 [CBK281398],81.5
21,CCn1cnc2cc(NC(=O)CC(C)n3nc(C)cc3C)ccc21 (centres unmarked) [CBK281401],94.8
22,Cc1nc(-c2ccc(NC(=O)Cc3sc(C)nc3C)cc2)cs1 [CBK281404],96
23,Cc1noc(C)c1CC(=O)Nc1cccc(CN2CCCCCC2)c1 [CBK281407],105
24,O=C(Cn1ccnc1)Nc1nc(-c2ccccc2F)cs1 [CBK281409],104

row,Compound,"viability at 28.5 h, 10 µM [%]"
1,Cc1ncncc1C(=O)NCC1(c2ccccc2F)CCCC1 [CBK281411],105
2,CC1(CNS(=O)(=O)Cc2cc(F)cc(F)c2)COC1 [CBK281413],91.3
3,CCc1nc(CNC(=O)c2cc3cc(F)ccc3n2C)no1 [CBK281414],93.6
4,CC(C)Oc1cccc(CNC(=O)c2ccc(C(C)(C)C)[nH]c2=O)c1 [CBK281415],92.2
5,Cc1ccn2cc(C(=O)NCCSc3nccn3C)nc2c1 [CBK281417],104
6,Cc1c(S(=O)(=O)Nc2ccc(-c3ccc(F)cc3)cc2)cnn1C [CBK281418],114
7,Cc1cc(=O)n(CC(=O)NC(C)Cc2ccccn2)c2ccccc12 (centres unmarked) [CBK281420],90.3
8,CC(Cc1ccccn1)NC(=O)c1cc(-c2ccccc2F)no1 (centres unmarked) [CBK281421],91.1
9,COc1ccc2c(C)c(C(=O)NC(C)Cc3ccccn3)oc2c1 (centres unmarked) [CBK281424],89.1
10,Cc1nc(C)c(CC(=O)Nc2cccc(CN3CCCC3)c2)s1 [CBK281426],105
11,Cc1ccc(F)c(S(=O)(=O)NC(C)Cc2ccccn2)c1 (centres unmarked) [CBK281427],90.5
12,Cc1nn(CCNC(=O)C2CC3C=CC2C32CC2)c(C)c1Cl (centres unmarked) [CBK281429],90.8
13,Cn1nc(C(=O)Nc2ccccc2Oc2ccc(F)cc2)ccc1=O [CBK281430],91
14,CC(NC(=O)CC(C)n1cccn1)c1cc2cc(Cl)ccc2o1 (centres unmarked) [CBK281432],92.6
15,CCc1cc(C(=O)NC(c2ccc(F)cc2)c2nccn2C)n(C)n1 (centres unmarked) [CBK281434],108
16,COC(=O)C1(Cc2ccccc2-c2ccncc2)CCNC1 (centres unmarked) [CBK281435],85.2
17,Cc1cn(CC(=O)NCC2(c3cccc(F)c3)CCCC2)nn1 [CBK281436],89.7
18,CC(C(=O)NC(c1ccncc1)c1cccs1)n1ccnc1 (centres unmarked) [CBK281438],90.9
19,Cc1nccn1CCC(=O)NC(c1ccncc1)c1cccs1 (centres unmarked) [CBK281440],90.6
20,Cn1ccnc1C(NC(=O)C1C2CCCCC21)c1ccc(F)cc1 (centres unmarked) [CBK281441],98.7
21,Cc1nonc1CN(C)C(=O)c1ccc2c(c1)c(C)c(C)n2C [CBK281442],56.1

# Same assay, conditions: human, hela cells, % viability, bulk resorufin, single well
row,Compound,"viability at 28.5 h, 10 µM [%]"
1,O=C1NC(=O)N(Cc2ccccc2)C(=O)/C1=C/c1ccc(O)c(O)c1 [CBK278181],117
